According to PubChem BioAssay AID248 (DTP/NCI, 2004):
Toxic doses and inconclusive results are not listed. Cut-off read from the data, not from the text of the source: active = T/C of 150% or more; inactive = T/C below 125%.

System: L1210 leukemia ip in BDF1 mice, survival T/C
Test: NCI In Vivo Anticancer Drug Screen. Data for tumor model L1210 Leukemia (intraperitoneal) in B6D2F1 (BDF1) mice
Settings: endpoint: mean survival time, higher = longer survival
Procedure, shortened: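 Value reflects the ratio of survival in compound-treated mice to survival in vehicle-treated controls, with both groups carrying the same transplanted tumor.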

[1] = dose: 100.0 mg/kg/injection, schedule: Q04DX003 (ip), vehicle: Klucel (hydroxypropylcellulose) (HPC)
[2] = dose: 200.0 mg/kg/injection, schedule: Q04DX003 (ip), vehicle: Klucel (hydroxypropylcellulose) (HPC)
[3] = dose: 400.0 mg/kg/injection, schedule: Q04DX003 (ip), vehicle: Klucel (hydroxypropylcellulose) (HPC)
[4] = dose: 100.0 mg/kg/injection, schedule: Q04DX003 (ip), vehicle: saline with Tween-80
[5] = dose: 200.0 mg/kg/injection, schedule: Q04DX003 (ip), vehicle: saline with Tween-80
[6] = dose: 400.0 mg/kg/injection, schedule: Q04DX003 (ip), vehicle: saline with Tween-80
[7] = dose: 100.0 mg/kg/injection, schedule: Q01DX009 (ip), vehicle: Klucel (hydroxypropylcellulose) (HPC)
[8] = dose: 100.0 mg/kg/injection, schedule: Q01DX001 (ip), vehicle: saline
[9] = dose: 200.0 mg/kg/injection, schedule: Q01DX001 (ip), vehicle: saline
[10] = dose: 400.0 mg/kg/injection, schedule: Q01DX001 (ip), vehicle: saline

Measured: T/C

CC(=O)CC(C)=NCCN=C(C)CC(C)=O
inactive: dose: 100.0 mg/kg/injection, schedule: Q01DX009 (ip), vehicle: saline with Tween-80 91 % of control | dose: 200.0 mg/kg/injection, schedule: Q01DX009 (ip), vehicle: saline with Tween-80 94 % of control | dose: 400.0 mg/kg/injection, schedule: Q01DX009 (ip), vehicle: saline with Tween-80 92 % of control

O=c1[nH]nnc2c1ncn2C1OC(CO)C(O)C1O (stereo unspecified)
inactive: dose: 100.0 mg/kg/injection, schedule: Q01DX005 (ip), vehicle: saline 102 % of control | dose: 200.0 mg/kg/injection, schedule: Q01DX005 (ip), vehicle: saline 102 % of control

NN(C(=O)c1ccccc1)c1ccccc1
inactive: dose: 75.0 mg/kg/injection, schedule: Q01DX001 (ip), vehicle: carboxymethylcellulose (CMC) 93 % of control | dose: 150.0 mg/kg/injection, schedule: Q01DX001 (ip), vehicle: carboxymethylcellulose (CMC) 98 % of control | dose: 300.0 mg/kg/injection, schedule: Q01DX001 (ip), vehicle: carboxymethylcellulose (CMC) 95 % of control

NC(CCn1cnc2c(=O)[nH]cnc21)C(=O)O (stereo unspecified)
inactive: [1] 101 % of control | [2] 102 % of control | [3] 96 % of control

CCOC(=O)c1c(Cl)cc(C)nc1C
inactive: [4] 93 % of control | [5] 101 % of control | [6] 95 % of control

CN(CCNC(=O)c1ccccc1C(=O)O)c1ccccc1
inactive: dose: 100.0 mg/kg/injection, schedule: Q04DX002 (ip), vehicle: saline with Tween-80 100 % of control | dose: 200.0 mg/kg/injection, schedule: Q04DX002 (ip), vehicle: saline with Tween-80 95 % of control

COc1ccc(Nc2ccccc2C(=O)NN)cc1
inactive: dose: 50.0 mg/kg/injection, schedule: Q01DX009 (ip), vehicle: Klucel (hydroxypropylcellulose) (HPC) 102 % of control | [7] 96 % of control | [1] 94 % of control | [2] 105 % of control

O=[N+]([O-])c1ccc2cn[nH]c2c1
inactive: [7] 112 % of control | [1] 95 % of control | dose: 200.0 mg/kg/injection, schedule: Q01DX009 (ip), vehicle: Klucel (hydroxypropylcellulose) (HPC) 106 % of control | [2] 92 % of control | dose: 400.0 mg/kg/injection, schedule: Q01DX009 (ip), vehicle: Klucel (hydroxypropylcellulose) (HPC) 107 % of control | [3] 96 % of control

CCCCCCCC/C(C=O)=C\c1ccc(C)cc1
inactive: [8] 86 % of control | [9] 102 % of control | [10] 87 % of control

CC(=O)NC(Cc1cnc[nH]1)C(=O)O (stereo unspecified)
inactive: [8] 97 % of control | [9] 98 % of control | [10] 97 % of control

O=C1c2ccccc2C(c2ccccc2)(N(CCCl)CCCl)N1C1CCCCC1 (stereo unspecified)
inactive: [1] 103 % of control | [2] 102 % of control | [3] 97 % of control

C=CCOc1c(C)cc(C)cc1/C=C/C
inactive: [4] 94 % of control | [5] 97 % of control | [6] 96 % of control

COc1ccc(/C=C2\CCC3C4(CCCC3(C)C2=O)OCCO4)cc1 (stereo unspecified)
inactive: dose: 200.0 mg/kg/injection, schedule: Q01DX009 (ip), vehicle: saline 92 % of control | dose: 400.0 mg/kg/injection, schedule: Q01DX009 (ip), vehicle: saline 101 % of control

CCC(C)N(C(C)=O)C(C)CC (stereo unspecified)
inactive: dose: 25.0 mg/kg/injection, schedule: Q01DX001 (ip), vehicle: saline 107 % of control | dose: 50.0 mg/kg/injection, schedule: Q01DX001 (ip), vehicle: saline 97 % of control | [8] 100 % of control

CC1CCc2ccccc2N1CCN (stereo unspecified)
inactive: dose: 25.0 mg/kg/injection, schedule: Q01DX009 (ip), vehicle: saline 103 % of control | dose: 50.0 mg/kg/injection, schedule: Q01DX009 (ip), vehicle: saline 103 % of control | dose: 100.0 mg/kg/injection, schedule: Q01DX009 (ip), vehicle: saline 97 % of control
